From patent US12275734B1, “Pleuromutilin onium salt derivative containing a 3H-imidazo[4,5-c]pyridine side chain, and a preparation method and application thereof” (SHAANXI UNIVERSITY OF SCIENCE AND TECHNOLOGY, priority 2024, dated 2025)
Converted amounts (≈) assume the structure as drawn. Like-named read-outs stand apart in the source and are kept apart here.

What was measured:
Format in all cases: cell-based
[1] = test system: methicillin-resistant Staphylococcus aureus-171; assay: MIC, clinical isolates
Procedure: (§1) The minimum inhibitory concentration of 3H-imidazo[4,5-C]pyridine pleuromutilin onium salt derivatives against the tested pathogenic microorganisms were determined by broth microdilution method, with valnemulin and retapamulin as positive controls.
(§2) The experimental strains included resistant Gram-positive bacteria: Methicillin-resistant S. aureus ATCC 33591; Methicillin-resistant S. aureus ATCC 43300; S. aureus ATCC 29213; Methicillin-resistant S. epidermidis ATCC 51625. Resistant Gram-negative bacteria: A. baumannii ATCC 19606; S. enterica ATCC14028; E. coli ATCC 25922; E. coli CMCC 44103. 9 clinically isolated resistant strains: MRSA-171; MRSA-575; MRSA-206; MRSA-222; MRSA-596; VRE-80; MDR-PA-126; MDR-KP-893; CR-AB-882.
(§3) (1) Preparation of MHB medium: Weigh 18.0 g of MHB medium pre-made powder, add it to 1 L of distilled water, heat and boil until completely dissolved, divide it into conical bottles, sterilize it by high pressure at 121° C. for 15 minutes, and set aside.
(§4) (2) Cultivate the experimental strain to the logarithmic growth phase: Under sterile conditions, inoculate the experimental strain into fresh MHB medium and culture it in a 37° C. constant temperature and humidity incubator for 16-24 hours. Adjust the bacterial solution concentration to 1.5×10^8 CFU/mL and then dilute it 200 times for later use.
(§5) (3) Preparation of storage solution: Weigh the sample to be tested, dissolve it in 1% DMSO solution, and prepare a storage solution with a concentration of 2560 μg/mL; weigh the positive control, dissolve it in sterile distilled water, and prepare a storage solution with a concentration of 2560 μg/mL.
(§6) (4) Preparation of bacterial suspension: Under sterile conditions, the experimental strain cultured to the logarithmic growth phase was calibrated to a 0.5 McFarland unit turbidity standard using MHB medium and then diluted at a ratio of 1:200 to prepare a bacterial suspension with a concentration of 5×10^5 CFU/mL for later use.
(§7) (5) Determination of MIC by two-fold microdilution method: Take a sterile 96-well plate, add 10 μL of the test compound at a concentration of 2560 μg/mL, and perform serial dilutions by the two-fold dilution method. At the same time, set up a negative control group without drug. Then add 190 μL of diluted bacterial solution to each well, so that the final bacterial solution concentration in each well is 5×10^5 CFU/mL, and incubate in a 37° C. constant temperature and humidity chamber for 24 hours.

[2] = test system: multidrug-resistant Klebsiella pneumoniae-893; assay: MIC, clinical isolates; conditions: clinical isolate MDR-KP-893
Procedure: as §1, §2, §3, §4, §5, §6, §7

[3] = test system: methicillin-resistant Staphylococcus aureus-206; assay: MIC, clinical isolates
Procedure: as §1, §2, §3, §4, §5, §6, §7

[4] = test system: multidrug-resistant Pseudomonas aeruginosa-126; assay: MIC, clinical isolates
Procedure: as §1, §2, §3, §4, §5, §6, §7

[5] = test system: vancomycin-resistant Enterococcus-80; assay: MIC, clinical isolates
Procedure: as §1, §2, §3, §4, §5, §6, §7

[6] = test system: methicillin-resistant Staphylococcus aureus-596; assay: MIC, clinical isolates
Procedure: as §1, §2, §3, §4, §5, §6, §7

[7] = test system: carbapenem-resistant Acinetobacter baumannii-882; assay: MIC, clinical isolates
Procedure: as §1, §2, §3, §4, §5, §6, §7

[8] = test system: methicillin-resistant Staphylococcus aureus-575; assay: MIC, clinical isolates
Procedure: as §1, §2, §3, §4, §5, §6, §7

[9] = test system: methicillin-resistant Staphylococcus aureus-222; assay: MIC, clinical isolates; conditions: MRSA / MRSE
Procedure: as §1, §2, §3, §4, §5, §6, §7

[10] = test system: E.coli CMCC 44103; assay: MIC, broth microdilution; conditions: Escherichia coli
In short: (§8)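 Broth microdilution in Mueller–Hinton broth: compounds two-fold serially diluted from a 2560 μg/mL stock (1% DMSO), inoculum 5×10^5 CFU/mL final from log-phase cultures, incubation 37 °C for 24 h. MIC taken as the lowest concentration inhibiting growth.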

[11] = test system: Methicillin-resistant S. aureus ATCC 33591; assay: MIC, broth microdilution; conditions: Staphylococcus aureus, ATCC 33591 / MRSA, read-out: Minimum inhibitory concentration MRSA^b
In short: as §8

[12] = test system: A. baumannii ATCC 19606; assay: MIC, broth microdilution; conditions: Acinetobacter baumannii
In short: as §8

[13] = test system: Methicillin-resistant S. aureus ATCC 43300; assay: MIC, broth microdilution; conditions: Staphylococcus aureus, ATCC 43300 / MRSA, read-out: Minimum inhibitory concentration MRSA^c
In short: as §8

[14] = test system: E. coli ATCC 25922; assay: MIC, broth microdilution; conditions: Escherichia coli
In short: as §8

[15] = test system: S. aureus ATCC 29213; assay: MIC, broth microdilution; conditions: Staphylococcus aureus
In short: as §8

[16] = test system: HEK293 Cells; assay: Cytotoxicity, Cell Counting Kit-8
Procedure: (§9) Cell Counting Kit-8 was used to evaluate the cytotoxicity of the compounds.
(§10) (4) Cell culture: HepG2, HEK293 and A549 cells were evenly dispersed in culture medium, seeded into 96-well plates, and cultured under appropriate environmental conditions to keep the cells completely attached to the well walls.
(§11) (5) Compound treatment: Add different concentrations of compounds I-8 and I-9 to each well (the concentrations are 0.78, 1.56, 3.13, 6.25, 12.5, 25, 50 and 100 μM, respectively, and perform 6 parallel experiments). Set up a blank control group and a normal control group. After incubation for 24 hours, observe the cell condition, which observed under a microscope.
(§12) (6) CCK-8 solution treatment: Add CCK-8 solution to each well and incubate for 4 hours to allow it to react with the cells.
(§13) (7) Absorbance determination: Use a full-wavelength scanning multifunctional reader, place the 96-well plate in the instrument, oscillate to mix to make the color evenly distributed, and measure the absorbance value at 490 nm.
(§14) (8) Data analysis: Based on the measured absorbance values, the cell survival rate at different concentrations can be calculated. The median cytotoxic concentration was used to evaluate the cytotoxicity of the compound to A549, HEK293 and HepG2 cells.

[17] = test system: A549 Cells; assay: Cytotoxicity, Cell Counting Kit-8
Procedure: as §9, §10, §11, §12, §13, §14

[18] = test system: HepG2 Cells; assay: Cytotoxicity, Cell Counting Kit-8
Procedure: as §9, §10, §11, §12, §13, §14

For `C=C[C@]1(C)C[C@@H](OC(=O)CSc2nc3cc[n+](Cc4ccc(C)cc4)cc3[nH]2)[C@]2(C)[C@H](C)CC[C@]3(CCC(=O)[C@H]32)[C@@H](C)[C@@H]1O` [Compound i, 5-(4-methylbenzyl)-2-((2-(((3aR,4R,5R,7S,8S,9R,9aS,12R)-8-hydroxy-4,7,9,12-tetramethyl-3-oxo-7-vinyldecahydro-4,9a-propancyclopenta[8]cyclo-5-yl)oxy)-2-oxoethyl)thio)-3H-imidazo[4,5-C]pyridine-5-ium], the MIC ([1]; clinical isolate MRSA-171, read-out: Antibacterial activity (MIC) MRSA^b) was 4 µg/mL, the “Antibacterial activity (MIC) MDR-KP^i” value [2] was 2 µg/mL and the MIC ([3]; clinical isolate MRSA-206, read-out: Antibacterial activity (MIC) MRSA^d) was 1 µg/mL. The MIC ([4]; clinical isolate MDR-PA-126, read-out: Antibacterial activity (MIC) MDR-PA^h) was 4 µg/mL, the MIC ([5]; clinical isolate VRE-80, read-out: Antibacterial activity (MIC) VRE^g) was 4 µg/mL and the MIC ([6]; clinical isolate MRSA-596, read-out: Antibacterial activity (MIC) MRSA^f) was 2 µg/mL. It also gave an MIC ([7]; clinical isolate CR-AB-882, read-out: Antibacterial activity (MIC) CR-AB^j) of 4 µg/mL, an MIC ([8]; clinical isolate MRSA-575, read-out: Antibacterial activity (MIC) MRSA^c) of 1 µg/mL and an MIC ([9]; clinical isolate MRSA-222, read-out: Antibacterial activity (MIC) MRSE^e) of 4 µg/mL. For the same compound, the MIC ([10]; CMCC44103, E.coli CMCC 44103, read-out: Minimum inhibitory concentration E.c.^i) was 0.125 µg/mL, the MIC ([11]; Methicillin-resistant S. aureus ATCC 33591) was 0.125 µg/mL and the MIC ([12]; ATCC19606, A. baumannii ATCC 19606, read-out: Minimum inhibitory concentration A.b.^f) was 0.25 µg/mL. For the same compound, the MIC ([13]; Methicillin-resistant S. aureus ATCC 43300) was 0.0625 µg/mL, the MIC ([14]; ATCC25922, E. coli ATCC 25922, read-out: Minimum inhibitory concentration E.c.^h) was 0.125 µg/mL and the MIC ([15]; ATCC29213, S. aureus ATCC 29213, read-out: Minimum inhibitory concentration S.a.^d) was 0.0625 µg/mL. The CC50 ([16]; CCK-8, 24 hours incubation, read-out: CC50 HEK293 Cells) was 96.4 µM, the CC50 ([17]; CCK-8, 24 hours incubation, read-out: CC50 A549 Cells) was > 100 µM and the CC50 ([18]; CCK-8, 24 hours incubation, read-out: CC50 HepG2 Cells) was > 100 µM.
With `C=C[C@]1(C)C[C@@H](OC(=O)CS[C@@H]2C[C@H]3CC[C@@H](C2)N3C)[C@]2(C)[C@H](C)CC[C@]3(CCC(=O)[C@H]32)[C@@H](C)[C@@H]1O` [Retapamulin, reference compound] the MIC ([1]; MRSA, read-out: Antibacterial activity (MIC) MRSA^b) was 128 µg/mL (≈ 247 µM), the “Antibacterial activity (MIC) MDR-KP^i” value [2] was 128 µg/mL and the MIC ([3]; MRSA, read-out: Antibacterial activity (MIC) MRSA^d) was 64 µg/mL (≈ 124 µM). For the same compound, the MIC ([4]; read-out: Antibacterial activity (MIC) MDR-PA^h) was 64 µg/mL (≈ 124 µM), the MIC ([5]; VRE, read-out: Antibacterial activity (MIC) VRE^g) was > 128 µg/mL and the MIC ([6]; MRSA, read-out: Antibacterial activity (MIC) MRSA^f) was 32 µg/mL (≈ 61.8 µM). The MIC ([7]; read-out: Antibacterial activity (MIC) CR-AB^j) was 64 µg/mL (≈ 124 µM), the MIC ([8]; MRSA, read-out: Antibacterial activity (MIC) MRSA^c) was 32 µg/mL (≈ 61.8 µM) and the MIC ([9]; read-out: Antibacterial activity (MIC) MRSE^e) was 128 µg/mL (≈ 247 µM). The MIC ([10]; CMCC44103, read-out: Minimum inhibitory concentration E.c.^i) was 32 µg/mL (≈ 61.8 µM), the MIC [11] was 32 µg/mL (≈ 61.8 µM) and the MIC ([12]; ATCC19606, read-out: Minimum inhibitory concentration A.b.^f) was 4 µg/mL (≈ 7.73 µM). The MIC [13] was 16 µg/mL (≈ 30.9 µM), the MIC ([14]; ATCC25922, read-out: Minimum inhibitory concentration E.c.^h) was 32 µg/mL (≈ 61.8 µM) and the MIC ([15]; ATCC29213, read-out: Minimum inhibitory concentration S.a.^d) was 4 µg/mL (≈ 7.73 µM). The CC50 ([16]; human, 24 h) was 57.5 µM, the CC50 ([17]; human, 24 h) was 71.5 µM and the CC50 ([18]; human, 24 h) was 61.1 µM.
